The text below walks through data of PubChem BioAssay AID179 (DTP/NCI, 2004).

Several values for one entry are separate records, joined by “and”; a condition that tells them apart may be missing. Equal entries are not always repeated. Activity calls are given as the source filed them.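 How the source made its calls: active means compounds giving half or more protection of infected cells from virus-caused growth loss, again on retest; inactive means the rest.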 Bounds are passed on as bounds.

The subject of the test is CEM cells HIV-1 protection, formazan growth assay. As to the kind of experiment: NCI AIDS Antiviral Assay. As to conditions: for IC50: measured here: growth of uninfected CEM cells. In a few lines:
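Soluble formazan readout of cell growth; CEM cells ± HIV-1; 5 drug concs. ≥50% protection → retest; ≥50% again = moderately active; reproducible 100% = confirmed active.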

Regarding `O=C(O)c1cc(O)c2c(=O)c3c(O)cc(O)c4c5c(O)cc(O)c6c(=O)c7c(O)cc(C(=O)O)c8c1c2c(c34)c(c65)c78`, the result was inactive.

With `Nc1nc(NNc2ccccc2F)cc(=O)[nH]1`, the EC50 was > 200 µM and the IC50 worked out at 28.2 µM.

For the compound `O=S(=O)(O)Oc1cc2c(c(OS(=O)(=O)O)c1)C[C@H](OS(=O)(=O)O)[C@@H](c1ccc(OS(=O)(=O)O)c(OS(=O)(=O)O)c1)O2`, the EC50 is 91.2 µM and the IC50 came out at 174 µM.

Regarding `COC1(OC)N=C(N)C2(C#N)C(c3ccccc3)NC3=C(CCC3)C12C#N` (configuration not stated), the EC50 is > 200 µM and the IC50 was > 200 µM.

For the compound `COc1ccc(/C=C(\C(=O)OCC(C)C)c2ccc(OC)c(OC)c2)cc1OC`, the EC50 is > 200 µM and the IC50 was 166 µM.

For the compound `O=C1c2ccccc2C(=O)N1C/C=N/NS(=O)(=O)c1ccc(Br)cc1`, the EC50 was > 112 µM and the half-maximal inhibitory concentration (IC50) is > 112 µM.

For `CC12OC(=O)[C@@]3(O)CCC4C(C[C@H]5O[C@]56CC=CC(=O)[C@]46C)C45OC[C@H]6C(=O)O[C@@H]1C[C@@]6(C)[C@H](C4=O)C23O5` (some centres not stated), the EC50 was > 200 µM and the IC50 turned out to be 0.398 µM.

For the compound `CC(C)c1nc2c(c(=O)o1)CCS2`, the EC50 was > 182 µM and the IC50 was > 182 µM.

Consider `O=C(O)c1ccccc1P(=O)(O)c1ccccc1`, for which the EC50 is > 200 µM and the IC50 was > 200 µM.

Regarding `O=C(O)c1cc[c]([Sb](=[O])([OH])[OH])cc1`, the EC50 is 29.5 µM and the IC50 was > 200 µM.

Regarding `NN1C(=O)CS/C1=N\C(=S)N/N=C1/SCC(=O)N1N`, the EC50 is 57.5 µM and the IC50 stood at 85.1 µM.

Turning to `O=S1C(=c2ccc(=C3Sc4ccccc4S3)cc2)Sc2ccccc21` (configuration not stated), the result was inactive.

In the case of `COc1ccc(C2CC(c3c(O)ccc4ccccc34)=NN2C(C)=O)cc1OC` (configuration not stated), the EC50 was > 200 µM and the IC50 turned out to be 46.8 µM.

`COc1ccc2c(c1OC)C1CCCCC1SCC2=O` (configuration not stated): the EC50 is > 200 µM and the IC50 came to 105 µM.

Regarding `COc1cccc(N(CN2CC=CC2=O)C(C)=O)c1`, the result was inactive.

Consider `OCCOCC#CCOCCO`, for which the EC50 was > 200 µM and the IC50 was > 200 µM.

Take `c1ccc(C(NC2CCCCC2NCCNC2CCCCC2NC(c2ccccc2)(c2ccccc2)c2ccccc2)(c2ccccc2)c2ccccc2)cc1` (configuration not stated): the EC50 is > 200 µM and the IC50 came to 6.17 µM.

As to `ClC(c1ccccc1)(c1ccccc1)c1cccc(-c2cccc(C(Cl)(c3ccccc3)c3ccccc3)c2)c1`, the outcome was inactive.

With `NC(=O)c1ncn(CC2(CO)CCC2)n1`, the EC50 was > 200 µM and the IC50 is > 200 µM.

Regarding `O=C(N/C(=C\c1ccccc1Cl)c1nc2ccccc2[nH]1)c1ccccc1`, the outcome was inactive.

Consider `O=[N+]([O-])c1ccccc1Nc1ccccc1`, for which the result was inactive.

On to `CCOC(=O)c1nc2ccccc2nc1NCc1ccc(OC)c(OC)c1`, for which the EC50 is > 200 µM and the IC50 was > 200 µM.

Take `CC12CCC(C(Br)C1=O)C2(C)CBr` (configuration not stated): the result was inactive.

As to `CC(=O)CC(C)=O.CC(=O)CC(C)=O.CC(=O)CC(C)=O.[Mn]`, the EC50 was > 200 µM and the IC50 was 25.7 µM.

For the compound `CCC1(O)CC(OC2CC(N(C)C)C(OC3CC4OC5CC(=O)C(C)OC5OC4C(C)O3)C(C)O2)c2c(cc3c(c2O)C(=O)c2c(O)ccc(O)c2C3=O)C1C(=O)OC` (configuration not stated), the EC50 was > 2.4 µM; the IC50 is 0.0155 µM and 0.012 µM.

Regarding `Oc1cccc(C(O)CNC2CCCCC2)c1` (configuration not stated), the EC50 is > 200 µM and the IC50 was > 200 µM.

Regarding `O=C(C[N+]12CC=C(CO)C1C(O)CC2)c1ccc(Br)cc1` (configuration not stated), the EC50 was > 575 µM and the IC50 was > 575 µM.

For the compound `C[C@@H]1OCC(O)C([C@H]2OC(c3ccccc3)=N[C@H]2CO)O1` (some centres not stated), the EC50 was > 200 µM and the IC50 was > 200 µM.

In the case of `C[C@H](CCCN1CCN(C)CC1)[C@H]1CC[C@H]2[C@@H]3CC[C@@H]4C[C@H](O)CC[C@]4(C)[C@H]3CC[C@]12C`, the EC50 is > 50.1 µM and the IC50 was found to be 3.09 µM.

Regarding `N#Cc1ccc(C(O)C(F)(F)c2nc3ccccc3o2)cc1` (configuration not stated), the EC50 is > 200 µM and the IC50 was > 200 µM.

For `CCCCNC(=O)OCC(C)(CCC)COC(N)=O` (configuration not stated), the EC50 was > 200 µM and the IC50 amounted to 148 µM.

For the compound `CCc1ccccc1N1CCN(C(=O)c2cc(OC)c(OC)c(OC)c2)CC1`, the EC50 is > 93.3 µM and the IC50 was found to be 0.0295 µM.

As for `O=C1C2N=NNC2C(=O)N1c1ccccc1` (configuration not stated), the EC50 is > 200 µM and the IC50 was > 200 µM.

Take `CC(C)/C=C/c1cc(/C=C/C(=O)c2cc(/C=C/C(C)C)c(O)cc2O)ccc1O`: the result was inactive.

Take `COC(=O)CCC1(C)C2CCC1(C)/C(=N/O)C2` (configuration not stated): the EC50 is > 200 µM and the IC50 was > 200 µM.

As for `N=C1C(=O)NC(=O)C1c1ccccc1` (configuration not stated), the EC50 is > 200 µM and the IC50 came out at 151 µM.

For `CN1C(NN)=NS(=O)(=O)c2ccccc21`, the EC50 was > 115 µM and the IC50 was 95.5 µM.

As to `COc1ccc(NC(=O)C(C)Oc2ccc(OCC3CCCCC3)cc2)cc1` (configuration not stated), the EC50 was > 26.3 µM and the IC50 was > 26.3 µM.

For `COc1ccc(/C(Br)=C2\OC(=O)c3ccccc32)cc1`, the EC50 was > 200 µM and the IC50 is > 200 µM.

Take `O=C(NC(O)C(Cl)(Cl)Cl)NC(O)C(Cl)(Cl)Cl` (configuration not stated): the EC50 was > 200 µM and the IC50 is > 200 µM.

On to `Cn1c(=O)n2n(c1=O)C1(CCO)CCC2(CCO)CC1`, for which the EC50 was > 331 µM and the IC50 was > 331 µM.

As for `Nc1nc(SCC(=O)c2ccccc2)nc2nc3c(c(-c4ccccc4)c12)CCCC3`, the EC50 is > 100 µM and the IC50 worked out at 66.1 µM.

As for `O=C1COc2cc(N3CCN(c4cccc(C(F)(F)F)c4)CC3)ccc2N1`, the EC50 was > 200 µM and the IC50 was > 200 µM.

With `CN1CCN(c2ccc3c(c2)NCC(=O)N3)CC1`, the EC50 was > 200 µM and the IC50 was 117 µM.

For the compound `CCCCCCCCC/C=C(/CC(=O)O)C(=O)O`, the EC50 is > 708 µM and the IC50 was > 708 µM.

Regarding `O=C(O/N=C1/CCC/C1=C\c1ccccc1)c1ccc(Cl)cc1`, the result was inactive.

With `CCOC(C)CCCS(=O)(=O)O` (configuration not stated), the EC50 was > 200 µM and the IC50 was > 200 µM.

For the compound `CC(C)(C)[Si](C)(C)OCC1OC(n2ccc(=O)[nH]c2=O)C(C/C=[N+](/[O-])CC2OC(n3ccc(=O)[nH]c3=O)C(O[Si](C)(C)C(C)(C)C)C2O[Si](C)(C)C(C)(C)C)C1O[Si](C)(C)C(C)(C)C` (configuration not stated), the EC50 was > 100 µM and the half-maximal inhibitory concentration (IC50) is 89.1 µM.

`Nc1ncnc2c1ncn2[C@H]1[C@H](CO)[C@@H](CO)C1(F)F`: the EC50 is > 200 µM and the IC50 came to 155 µM.

Regarding `O=P(O)(O)OP(=O)(O)O`, the EC50 is 182 µM and the IC50 is > 200 µM.

Consider `C=C1C(O)C2(O)OCC34C(CC5C(C)=CC(=O)C(O)C5(C)C23)OC(=O)C(OC(=O)C/C=C(\C)CCCCC)C14` (configuration not stated), for which the EC50 was > 47.9 µM and the IC50 was determined as 0.0151 µM.

In the case of `CSC(Cc1ccc2c(c1)Sc1ccccc1O2)=[N+]1CCOCC1`, the EC50 is > 200 µM and the IC50 was 44.7 µM.

Regarding `CC(=O)OC1C(CNC(=O)N(C)N=O)OC(OC2(CNC(=O)N(C)N=O)OC(CNC(=O)N(C)N=O)C(OC(C)=O)C2OC(C)=O)C(OC(C)=O)C1OC(C)=O` (configuration not stated), the EC50 is > 27.5 µM and the IC50 was > 27.5 µM.

Consider `O=C1C=C(Nc2ccccc2C(=O)CC(=O)C(=O)Nc2ccc(Cl)c(Cl)c2)c2ccccc2C1=O`, for which the EC50 was > 26.9 µM and the IC50 was > 26.9 µM.

As for `CCOP(=O)(OCC)C1CC(n2cc(C)c(=O)[nH]c2=O)OC1CO` (configuration not stated), the EC50 is > 200 µM and the IC50 was determined as 182 µM.

On to `COc1ccc(/C=C/C(=O)CC(=O)/C=C/c2ccc(OC)cc2)cc1`, for which the EC50 is > 200 µM and the IC50 was > 200 µM.

Take `CC(C)(C)COC(=O)NC1CCC2CCCCC2C1` (configuration not stated): the EC50 was > 200 µM and the IC50 is > 200 µM.

For `Cc1ccc(S(=O)(=O)N/N=C/C2(c3ccccc3)c3ccccc3-c3ccccc32)cc1`, the EC50 is > 200 µM and the IC50 stood at 11.2 µM.

For the compound `C=CCc1ccc(O)c(-c2cc(C3Oc4c(-c5cc(CC=C)ccc5O)cc(O)cc4[C@@H]3CO)ccc2O)c1` (some centres not stated), the EC50 was > 100 µM and the IC50 came to 91.2 µM.

With `O=[N+]([O-])c1ccccc1S(=O)(=O)c1cc(Cl)cc2c1NCCC2`, the EC50 was > 151 µM and the IC50 amounted to 28.8 µM.

As to `Cc1nc2c(=O)[nH]ncc2[nH]1`, the EC50 is > 200 µM and the IC50 was > 200 µM.

In the case of `CCCCC(C)CCCC1=C(O)C(CC(=O)O)OC1=O` (configuration not stated), the EC50 was > 87.1 µM and the IC50 is > 87.1 µM.

As for `CNC(=S)N/N=C(\C)c1cc(OC)c(OC)cc1O`, the EC50 is > 200 µM and the IC50 was > 200 µM.

For the compound `COC(=O)c1cc(C(=O)OC)c(C/C(=N/NC(N)=S)C(=O)Nc2c(C)cccc2C)nc1CC(=Nc1c(C)cccc1C)NNC(N)=S`, the EC50 was > 200 µM and the IC50 is > 200 µM.

As to `COC(=O)C1=C(C(=O)OC)SC2(S1)C(C(=O)OC)=C(C(=O)OC)Sc1c2ssc1=O`, the EC50 is > 0.2 µM and the IC50 was 0.0575 µM.

As for `Cc1nc2ccccc2c(=O)n1NC(=O)c1ccccc1O`, the EC50 is > 200 µM and the IC50 was 38 µM.

As for `Cc1cc2c(cc1C)C(=O)C1(C2)Cc2c(ccc(C)c2C)C1=O` (configuration not stated), the EC50 was > 100 µM and the IC50 is > 100 µM.

`O=C1C2CCc3cnn(-c4ccccc4)c3C2C(=O)N1c1ccccc1` (configuration not stated): the EC50 was > 200 µM and the IC50 was > 200 µM.

Consider `CCCCCCCSc1nc2c(C(=O)OCC)ncn2c2ccccc12`, for which the EC50 was > 19.5 µM and the IC50 was > 19.5 µM.

Turning to `CC1(C)CNC[C@@](C)(OCCO)C(=O)[N-]C(C)(C)CNC[C@@](C)(OCCO)C(=O)[N-]1.[Ni+2]`, the EC50 is > 200 µM and the IC50 was > 200 µM.

Take `CC(=O)N1CN2C(=O)CCC2c2ccccc21` (configuration not stated): the result was inactive.
